± gives the expanded uncertainty stated by the source.
How the values were obtained:
[1] = mn = molality of the nth substance listed, in mol/kg; conditions: 101 kPa, Liquid, m2 = 0; for viscosity: Capillary tube (Ostwald / Ubbelohde) method
[2] = 101 kPa, Liquid; for viscosity: Capillary tube (Ostwald / Ubbelohde) method

CO [methanol] + COC(=O)[C@H](c1ccccc1Cl)N1CCc2sccc2C1.O=S(=O)(O)O
[1]
Conditions	mass density [kg/m3]	viscosity [mPa·s]
278.15 K	803 ± 0.9	0.7418 ± 0.0065
283.15 K	798.9 ± 0.8	0.689 ± 0.0061
288.15 K	795.2 ± 0.8	0.641 ± 0.0057
293.15 K	792.1 ± 0.9	0.599 ± 0.0054
298.15 K	787.9 ± 0.8	0.5585 ± 0.005
303.15 K	783.7 ± 0.8	0.5199 ± 0.0047
308.15 K	779.5 ± 0.9	0.4857 ± 0.0044
313.15 K	775.2 ± 0.9	0.4559 ± 0.0042

CO [methanol]
[2]
Conditions	mass density [kg/m3]	viscosity [mPa·s]
278.15 K	803 ± 0.9	0.7418 ± 0.0065
283.15 K	798.9 ± 0.8	0.689 ± 0.0061
288.15 K	795.2 ± 0.8	0.641 ± 0.0057
293.15 K	792.1 ± 0.9	0.599 ± 0.0054
298.15 K	787.9 ± 0.8	0.5585 ± 0.005
303.15 K	783.7 ± 0.8	0.5199 ± 0.0047
308.15 K	779.5 ± 0.9	0.4857 ± 0.0044
313.15 K	775.2 ± 0.9	0.4559 ± 0.0042

CCO [ethanol]
[2]
Conditions	mass density [kg/m3]	viscosity [mPa·s]
278.15 K	800.5 ± 1	1.629 ± 0.014
283.15 K	797.8 ± 1	1.474 ± 0.013
288.15 K	793.9 ± 0.8	1.333 ± 0.011
293.15 K	790 ± 0.9	1.21 ± 0.01
298.15 K	785.7 ± 0.9	1.099 ± 0.0094
303.15 K	780.9 ± 0.9	0.9971 ± 0.0086
308.15 K	778 ± 1.2	0.9083 ± 0.0079
313.15 K	773.3 ± 1	0.828 ± 0.0072

CCO [ethanol] + COC(=O)[C@H](c1ccccc1Cl)N1CCc2sccc2C1.O=S(=O)(O)O
[1]
Conditions	mass density [kg/m3]	viscosity [mPa·s]
278.15 K	800.5 ± 1	1.629 ± 0.014
283.15 K	797.8 ± 1	1.474 ± 0.013
288.15 K	793.9 ± 0.8	1.333 ± 0.011
293.15 K	790 ± 0.9	1.21 ± 0.01
298.15 K	785.7 ± 0.9	1.099 ± 0.0094
303.15 K	780.9 ± 0.9	0.9971 ± 0.0086
308.15 K	778 ± 1.2	0.9083 ± 0.0079
313.15 K	773.3 ± 1	0.828 ± 0.0072

— the NIST ThermoML archive (doi:10.1021/je1000796)
